In patent US20240024491A1, “MANNOSYLATED AMINE DEXTRAN DRUG DELIVERY VEHICLES WITH DEGRADABLE DISULFIDE/CARBONATE LINKERS TARGETING PAYLOADS TO CD206 EXPRESSING CELLS” (Navidea Biopharmaceuticals, Inc., priority 2022, published 2024):

Legend:
[1] = tested on: human macrophages; experiment: Human macrophage cell culture assay, surface marker expression (MFI) by flow cytometry; format: cell-based; conditions: MAD-PAC3.5 or equal molar equivalent concentration of free paclitaxel; vs no drug control
Method: In this assay, human peripheral blood monocytes (hPBMCs) were incubated for five days in RPMI+10% FBS+1x Penicillin/Streptomycin/L-glutamine+5Ong/mlGM-CSF (complete medium) at a concentration of 500,000 monocytes per well in 48 well tissue culture plates. […] GM-CSF induces the macrophages to adopt an activated phenotype that is intermediate between the extremes of M1 or M2. […] Saline and Vehicle (MAD without a drug payload, 23.3 μg/ml) were added as alternative supplements to other cultures as negative controls. The macrophage cell cultures were incubated with the supplemented complete medium for 24 hours after which it was removed and replaced with fresh complete medium. The macrophage cultures were then incubated for an additional three days. The three-day post treatment incubation was performed to permit assessment of durable changes in macrophage phenotypes.
After the additional three-day incubation in fresh complete medium, the cells were harvested and evaluated by flow cytometry for viability (DAPI) or expression of macrophage surface markers. These markers are representative of markers that are frequently considered as indicative of either M1-like or M2-like phenotypes or are known immune checkpoint receptors. The evaluated cell surface markers included CD206, CD163, CD80, CD86, MHC1, MHC2, SIRPa, and PD-1 using antibodies specific for each marker. […] The outputs of the flow cytometry assays were mean fluorescent intensities (MFI). Macrophages differentiated from monocytes collected from three separate donors were evaluated for all treatments. For each donor's macrophages, all experiments were run in triplicate.

[2] = tested on: CT26 cells; experiment: CT26/Balb-c syngeneic mouse tumor model; format: in vivo; conditions: intravenous injections on treatment days 1, 4, 7 and 11; MAD-PAC3.5 127 μg/injection, free paclitaxel molar equivalent
Method: Mice were implanted with CT26 cells that were permitted to grow and become established until they had attained tumor volumes of 80-100 mm 3. Tumor bearing mice (n=10/treatment group) were administered test articles by intravenous injections on 4 days (treatment days, 1, 4, 7, and 11). […] Tumor volumes were measured and recorded at regular intervals.

CC(=O)O[C@H]1C(=O)[C@@]2(C)[C@H]([C@H](OC(=O)c3ccccc3)[C@]3(O)C[C@H](OC(=O)[C@H](O)[C@@H](NC(=O)c4ccccc4)c4ccccc4)C(C)=C1C3(C)C)[C@]1(OC(C)=O)CO[C@@H]1C[C@@H]2O [free paclitaxel, paclitaxel]
expression of CD80 [1]: increased the expression
expression of CD86 [1]: increased the expression
expression of CD163 [1]: modestly increased expression
expression of CD206 [1]: modestly increased expression
expression of MHC1 [1]: not significantly altered
expression of MHC2 [1]: not significantly altered
expression of PD1 [1]: not by free paclitaxel
expression of SIRPa [1]: not significantly altered
mean tumor volume on treatment day 14 compared to saline [2]: modestly decreased mean tumor volumes
